Experimental data taken from patent US11060059B2, “Methods of producing T cell populations enriched for stable regulatory T-cells” (The USA, as represented by the Secretary, Department of …, priority 2011, dated 2021).

Tested on: Foxp3+Helios+ Tregs
Assay: Foxp3 and Helios staining (flow cytometry) of Tregs stimulated/expanded in vitro with anti-CD3/anti-CD28 and IL-2
Assay type: cell-based, human
Excerpt: To determine if a correlation exists between Helios expression and TSDR methylation status, four different CD4^+ subsets (Foxp3^+Helios^+, Foxp3^+Helios^−, Foxp3^−Helios^+, and Foxp3^−Helios^−) were isolated and expression of various proteins analyzed. Briefly, human PBMCs were obtained from 20-80 year-old healthy male donors by Department of Transfusion Medicine at National Institutes of Health. CD4^+CD25^hiCD127^− Tregs were isolated by cell sorting on a FACSAria. Sorted Treg (0.2×10^6) cells were re-suspended in complete RPMI-1640 supplemented with 10% heat-inactivated fetal calf serum, and stimulated in plates coated with anti-CD3ϵ (10 μg/ml) and anti-CD28 (2 μg/ml) in the presence of IL-2 (150 U/ml) for 5-6 days. Stimulated cells were washed in RPMI 1640-10 media twice and expanded in complete RPMI 1640-10 with recombinant IL-2 (150 U/ml) for 5-10 days in the presence of Treg-expander magnetic beads (Cell:Bead=4:1). To evaluate the purity of sorted Tregs, cells were stained with anti-Foxp3 and anti-Helios (Biolegend) in Foxp3-staining buffer (eBioscience). All flow cytometry was performed on a FACS LSRII flow cytometer (Becton Dickinson) and analyzed with FlowJo software (TreeStar).
Initially, two potential candidates were selected for testing: TGFβ, and the toll-like receptor 9 (TLR9) agonist CpG oligodeoxynucleotide (ODN). […]

| Compound | stabilization / increase of the Foxp3+Helios+ population, single agents (CD4+CD25+ cells, 5 days with agent alone, then 7 days without (FIG. 2B)) | effect on the stabilization of Foxp3+Helios+ T cells (TLR 7 / TLR 8 agonists at 10 μM compared with CpG ODN (FIG. 6B)) |
| --- | --- | --- |
| TGFβ: TGFβ, candidate factor added at 5 ng/ml during Treg stimulation | modest increase |  |
| CCCCNc1nc(N)c2[nH]c(=O)n(Cc3ccc(C(=O)NCC(=O)O)cc3)c2n1 [CL264] |  | Neither the TLR 8 nor the TLR 7 agonists had any effect |
